Converted amounts (≈) assume the structure as drawn. Like-named read-outs stand apart in the source and are kept apart here. Where a SMILES comes first, the peptide text is derived from it. Bridges are numbered along the chain shown (N, C = ends). [ ]: non-standard residue; d: D form. The star is where a group is joined. Octanoyl(7-Me) = CC(C)CCCCCC(=O)*; dOrn = NCCC[C@@H](N)C(=O)O; Orn = NCCC[C@H](N)C(=O)O

Data set [1] relates to Human HeLa cells. To be noted: concentrations up to 128 μg mL^−1, 48 h, 37 °C, MTT, absorbance 570 nm.
Experimental: Human HeLa cells were used in the assay. Ninety μL of 1 × 10^5 mL^−1 cells were placed into the wells of 96-microwell plates. After 12 h, 10 μL of a medium containing test compounds at various concentrations were added to the cells which were then incubated at 37 °C for 48 h. Afterward, the supernatant was removed and 20 μL of MTT (3-(4,5-Dimethylthiazol-2-yl)-2,5-Diphenyltetrazolium Bromide) (2.5 mg mL^−1) in PBS were added to each well. After incubation at 37 °C for 3 h, 80 μL of dimethyl sulfoxide (DMSO) were added to each well and incubated for an additional 15 min. The absorbance was then measured at 570 nm with a Thermo Scientific Multiskan FC multiplate photometer.
The test system of data set [2] is Bacillus subtilis 168. As to the kind of experiment: MIC by broth microdilution. It counts as cell-based. To be noted: Supplementary Table 1; Bs = B. subtilis 168. As for the experimental part: (§1) MIC was determined by broth microdilution according to CLSI guidelines. The test medium for most species was Mueller–Hinton broth (MHB). Bacteria were grown overnight to early stationary phase and adjusted in MHB to 5.0 × 10^5 c.f.u. mL^−1 in the wells of 96-well microtiter plates (Falcon® 96-Well Flat-Bottom Microplate, Tissue Culture-Treated), mixed with varying concentrations of test compounds and incubated at 37 °C for 24 h. Cell growth was evaluated by measuring the optical density at 595 nm (Thermo Scientific Multiskan FC multiplate photometer) (Waltham, MA, USA), and the MIC was defined as the lowest compound concentration at which no bacterial growth was observed. MHBs containing 10% fetal bovine serum (Gibco), 21 mM MgCl, or 1.0 mg mL^−1 LPS (lipopolysaccharides from E. coli O55:B5, Sigma-Aldrich) was used to test their inhibitory effects.

In data set [3] the test system is Klebsiella pneumoniae NRRL-B-408. Put plainly: MIC by broth microdilution. The class given is cell-based. To be noted: Supplementary Table 1; Kp = Klebsiella pneumoniae NRRL-B-408. As for the experimental part:
as §1

Data set [4] has as its system Enterobacter cloacae NRRL-B-413. Put plainly: MIC by broth microdilution. It counts as cell-based. To be noted: Supplementary Table 1; En = Enterobacter cloacae NRRL-B-413. As for the experimental part:
as §1
(In broth dilution the organism is exposed to a series of concentrations in liquid medium.)

Data set [5] concerns Acinetobacter baumannii. Put plainly: MIC by broth microdilution. It counts as cell-based. To be noted: Supplementary Table 1. As to the method: as §1
Data set [6] relates to E. coli ATCC 25922. Put plainly: Resistance acquisition during serial passaging. The class given is cell-based, Escherichia coli. To be noted: subinhibitory concentrations, 30-day period, MHB, 37 °C, quadruplicate. As to the method: E. coli ATCC 25922 was inoculated into MHB overnight at 37 °C with continuous shaking. Cells were diluted 10,000 times in MHB to about 1 × 10^6 c.f.u. mL^−1. Ten µL aliquots were drawn to a 96-well plate containing 90 µL of serially diluted brevicidine, laterocidine, and ciprofloxacin, at final concentrations of 0.5×, 1×, 1.5×, 2×, and 4× MIC. […] Plates with bacteria were incubated at 37 °C without shaking. […] This process was repeated for 30 days, and the final MIC was confirmed by the same antibacterial assay as the one described above. The experiment was performed in quadruplicate, and on each day, the sample that developed the highest resistance was measured to plot the curve. For single-step resistance, E. coli ATCC 25922 cells at 10^8 c.f.u. were plated onto Mueller–Hinton agar containing 4× MIC of brevicidine.

Data set [7] concerns E. coli. Put plainly: Lysis assay. The class given is cell-based, Escherichia coli. To be noted: ten times the MIC, culture OD600 = 1.0, 24 h. As to the method: (§2) An overnight culture of E. coli TOP10 cells was diluted 1:10,000 in MHB and incubated at 37 °C with agitation at 180 rpm for 2 h (early exponential). The bacteria were then challenged with brevicidine (20 μg mL^−1), laterocidine (20 μg mL^−1), or polymyxin B (10 μg mL^−1) at ten times the MIC at room temperature without shaking. An untreated sample of cells was used as a negative control. At intervals, 10 μL aliquots were removed, centrifuged at 10,000 × g for 1 min and resuspended in 1.0 mL of sterile PBS. Tenfold serially diluted suspensions were plated on MHB agar plates and incubated at 37 °C overnight. Colonies were counted and the number of c.f.u. per mL was calculated. For analysis of lysis, 300 μL of culture (OD600 = 1.0) were treated with antibiotics at ten times the MIC for 24 h. Experiments were performed in triplicate.

Data set [8] deals with E. coli TOP10 cells. Put plainly: Bacterial growth kinetics. It counts as cell-based, Escherichia coli. Particulars: OD600 of cells exposed to antibiotics (Fig. 4: two times the MIC). As for the experimental part: A single fresh colony of E. coli TOP10 cells was inoculated into MHB (5 mL) and grown with shaking at 225 rpm overnight. The bacteria were diluted to 1 × 10^5 c.f.u. mL^−1 in fresh MHB, grown […] to early log-phase (OD600 = 0.15) and treated with the antibiotics of interest in the wells of a 96-well plate. Final antibiotic concentrations varied from one to eight times the MIC. The plate was then incubated at 30 °C overnight, with OD600 measurements taken every 30 s.

Data set [9] deals with rabbit erythrocytes. To be noted: concentrations up to 128 μg mL^−1, 2% (v/v) rabbit erythrocytes in PBS, 1 h, 37 °C, absorbance 570 nm, vs 10% Triton X-100.
Experimental: Hemolytic activity was determined with red blood cells freshly isolated from healthy rabbits. […] The cells were incubated for 1 h at 37 °C and centrifuged for 5 min at 10,000 × g. The supernatant was transferred to a 96-well plate and the absorbance was measured at a wavelength of 570 nm with a Thermo Scientific Multiskan FC multiplate photometer. The absorbance relative to the positive control, which was treated with 10% Triton X-100, was defined as the percentage of hemolysis.
Data set [10] concerns Saccharomyces cerevisiae. It counts as cell-based. To be noted: 24 h.
Data set [11] deals with E. coli TOP10 cells. Put plainly: Time-kill assay. It counts as cell-based, Escherichia coli. As for the experimental part: as §2
The test system of data set [12] is Escherichia coli ATCC 25922. As to the kind of experiment: microbe, parasite or virus in culture. It counts as cell-based. To be noted: Supplementary Table 1; Ec = Escherichia coli ATCC 25922. As to the method: as §1
Data set [13] deals with Colistin-resistant E. coli (E. coli ATCC 25922 carrying mcr-1). Put plainly: MIC by broth microdilution. It counts as cell-based, Escherichia coli. Particulars: MHB, 37 °C, 24 h. As to the method:
as §1

Data set [14] deals with Pseudomonas aeruginosa PAO1. The class given is cell-based. Particulars: Supplementary Table 1; Pa = Pseudomonas aeruginosa PAO1. As to the method:
as §1

In data set [15] the test system is Gram-negative bacteria. It counts as cell-based. As to the method:
as §1

For data set [16], the system named is Staphylococcus aureus (MRSA). It counts as cell-based. Particulars: 24 h. As for the experimental part: as §1
Data set [17] deals with K. pneumoniae NRRL-B-3521. It counts as cell-based, Klebsiella pneumoniae. To be noted: NRRL-B-3521, 24 h. As for the experimental part:
as §1

For data set [18], the system named is Candida albicans. It counts as cell-based. To be noted: 24 h.
Data set [19] concerns E. coli ATCC 25922. Put plainly: Neutropenic mouse thigh infection model. It counts as in vivo. To be noted: laterocidine 15 mg kg^−1 twice s.c., five mice, after 26 h, Mann–Whitney P < 0.01. As for the experimental part:
Given the low risk of resistance and the attractive mode of action of 1–2, an animal efficacy study was then performed in a mouse thigh model. Mice were intramuscularly infected with 1.50 × 10^6 c.f.u. of E. coli ATCC 25922. Two hours post infection, brevicidine (30 mg kg^−1) or laterocidine (15 mg kg^−1) was subcutaneously injected at two doses. […] In particular, compound 1 was highly efficacious in mice infected with E. coli and caused a 5 log10 reduction in c.f.u. in the thigh compared to the vehicle control after 24 h (Fig. 4f).
In vivo activities of brevicidine and laterocidine were tested using the mouse thigh infection model. Animal studies were performed by Pharmacology Discovery Services Taiwan Ltd. in general accordance with standard guidelines on animal welfare[38] in an AAALAC-accredited facility. The protocol was reviewed and approved by the Institutional Animal Care and Use Committee. Groups of five female-specific pathogen-free ICR (CD-1) mice weighing 22 ± 2 g (~5 weeks of age) were used. Animals were immunosuppressed with two intraperitoneal injections of cyclophosphamide, the first at 150 mg kg^−1 4 days before infection (day −4) and the second at 100 mg kg^−1 1 day before infection (day −1). On day 0, animals were inoculated intramuscularly (0.1 mL per thigh) in the right thigh with an E. coli ATCC 25922 suspension. Vehicle (10% DMSO, 1% Tween 80, 0.9% NaCl) and antibiotics were then subcutaneously injected 2 and 8 h later. Due to the limited availability of compounds 1–2, only one concentration of 1 (30 mg kg^−1) or 2 (15 mg kg^−1) was used in the present study. Precisely 26 h after inoculation, animals were euthanized by CO2 asphyxiation before their right thigh muscles were harvested. The removed muscles were homogenized in 5 mL of PBS, pH 7.4, with a Polytron homogenizer. Homogenates in the amount of 0.1 mL were used for serial tenfold dilutions and plated onto a nutrient agar medium for colony count (in c.f.u. g^−1) determination. No randomization or blinding was necessary for the animal infection models, and no samples were excluded.

In data set [20] the test system is E. cloacae NRRL-B-425. The class given is cell-based, Enterobacter cloacae. Particulars: NRRL-B-425, 24 h. As to the method: as §1

Take `CC[C@H](C)[C@@H]1NC(=O)[C@@H](NC(=O)[C@H](Cc2c[nH]c3ccccc23)NC(=O)[C@@H](CCCN)NC(=O)CNC(=O)[C@H](CCCN)NC(=O)[C@@H](CCCN)NC(=O)[C@@H](Cc2c[nH]c3ccccc23)NC(=O)[C@@H](Cc2ccc(O)cc2)NC(=O)[C@@H](CO)NC(=O)CCCCCC(C)C)[C@@H](C)OC(=O)CNC(=O)CNC(=O)[C@H](CC(N)=O)NC1=O` [Compound 2, laterocidine] ({Octanoyl(7-Me)}-[dS][dY][dW][dOrn][Orn]G[dOrn]WTINGG; ester 9-C): the “toxicity against the human cell line HeLa” value in data set [1] is “nor showed significant toxicity”. Moreover, the “MIC, Bs” value in data set [2] is 32 µg/mL (≈ 19.9 µM). Besides, the “MIC, Kp” value in [3] is 4 µg/mL (≈ 2.49 µM). Also, the “MIC, En” value in data set [4] was determined as 2 µg/mL (≈ 1.25 µM). The “MIC, Ab” value in data set [5] was determined as 4 µg/mL (≈ 2.49 µM). Also, the “resistance development during serial passaging” value in data set [6] was “did not develop resistance”. Besides, the “lysis of E. coli cells” value in data set [7] is listed as “completely lysed”. Moreover, the “growth kinetics of E. coli cells exposed to compound” value in data set [8] is listed as “grew at a reduced rate for 30 min”. The “lysis of erythrocytes (hemolysis)” value in data set [9] was “neither caused the lysis of erythrocytes”. In addition, the MIC in [10] is over 64 µg/mL; in data set [13], 2 µg/mL (≈ 1.25 µM); in data set [16], over 64 µg/mL; in data set [17], 4 µg/mL (≈ 2.49 µM); in [18], over 64 µg/mL; in [20] it was 2 µg/mL (≈ 1.25 µM). Besides, the “bactericidal action against E. coli” value in [11] (as revealed by growth kinetics, time-kill assay and lysis assay) is given as “bactericidal”. The “cell viability in time-kill assay” value in data set [11] (ten times the MIC, early exponential cells, room temperature, c.f.u. counts, triplicate) is “significant reduction after 30 min”. Moreover, the “MIC, Ec” value in data set [12] was 2 µg/mL (≈ 1.25 µM). The “MIC, Pa” value in data set [14] amounted to 2 µg/mL (≈ 1.25 µM). In addition, the “MIC values against Gram-negative bacteria” value in data set [15] (24 h) fell in the range of 0.66 to 10.5 µM; in data set [15] (range over Gram-negative strains incl. P. aeruginosa and colistin-resistant E. coli), 1 to 16 µg/mL. Also, the “viable bacteria in thigh” value in [19] is “reduced number of viable bacteria”.

By MIC is commonly meant the lowest concentration found to suppress growth. Low values mean inhibition by little substance, high ones a need for much substance.

Values taken from article PMC6095874, “Discovery of cationic nonribosomal peptides as Gram-negative antibiotics through global genome mining” (Nature Communications, 2018).
